Consider 4 compounds from patent publication US8299271B2, “Solid tartrate salts of DPP-IV inhibitors” (priority 2006, dated 2012).

Where a name gives a salt, the structure may show the parent alone.

A short description of series [1]: Salt preparation: isolation of solid salts of the pyrrolidine compound. In kind it is physicochemical. The settings on record: acid plus free base in IPA, filtration, MTBE.
Series [2] in a line: Chemical stability by HPLC. In kind it is physicochemical. The procedure:
In addition, the solutions before spraying and the spray dried product were analyzed for purity by HPLC using the following method. A Waters Symmetry C18 (3.0×150 mm, 3.5 um) column was used. […] Column temperature was 60° C., and the detection wavelength was 210 nm. The injection volume was 15 μL; flow rate was 1.0 mL/minute for a run time of 70 minutes. The gradient was as follows: Chemical Stability. Chemical stability was determined using HPLC. […] The chemical stability of the tartrate salt and the free base was also determined after one and three months at 25° C., 40° C. and 60° C.

Series [3] can be described thus: Chemical stability by HPLC. In kind it is physicochemical. The settings on record: 45% RH for two months.
A short description of series [4]: Physical stability in humidity chambers.
Text: Physical Stability in Humidity Chambers. […] Samples were weighed hourly at first, and then on daily intervals.
A short description of series [5]: 12 Month Stability Study. In kind it is physicochemical. Set-up: Water: unit not given beside the values. The settings on record: for decomposition on storage: 25° C.
Setting [6] is: 3 months at 40° C., listed as Tartrate.
[7] abbreviates: 12 months, T = 25° C., RH = 60%.

On to `O=C(O)[C@@H](O)[C@H](O)C(=O)O` [D-tartrate], for which the “Comments (outcome of salt preparation)” value in series [1] (listed as D-Tartaric Acid) is “Good filterable solid”.

As for `O=C(CN[C@@H]1CCNC1)N1CCC[C@H]1B(O)O` [Free Base, (2R)-1-{7-[(9R)-pyrrolidin-9-ylamino]-acetyl}-pyrrolidine-2-boronic acid], the “Assay (%)” value in series [2] (1 month at 40° C.) was 97%; in series [2] (3 months at 40° C.), 50%; in series [2] (Initial) it was 96%. In addition, the “Total Impurities (%)” value in series [2] (1 month at 40° C.) is given as 15.4%; in series [2] (3 months at 40° C.) it was 29.6%; in series [2] (Initial) it was 7.6%.

For the compound `O=C(CN[C@@H]1CCNC1)N1CCC[C@H]1B(O)O` [L-tartrate salt, (2R)-1-{7-[(9R)-pyrrolidin-9-ylamino]-acetyl}-pyrrolidine-2-boronic acid], the “solubility in water and alcohols” value is given as over 2000 mg/mL. Also, the “change in the purity (HPLC)” value in series [3] was “Little or no change”. Further, in series [2] (1 month at 60° C.), the “Assay (%)” value was 100% and the “Total Impurities (%)” value is listed as 5.8%. In series [2] (3 months at 25° C.), the “Assay (%)” value amounted to 99% and the “Total Impurities (%)” value is given as 5.7%. Besides, in series [2] (setting [6]), the “Assay (%)” value is on record as 97% and the “Total Impurities (%)” value is on record as 5.9%. Moreover, in series [2] (3 months at 60° C.), the “Assay (%)” value is 92% and the “Total Impurities (%)” value came to 7.4%. In series [2] (Initial, listed as Tartrate), the “Assay (%)” value stood at 99% and the “Total Impurities (%)” value is listed as 6.5%. Also, the hygroscopicity result in series [4] is given as “moderately hygroscopic”. In addition, the “processability of the solid” value in series [4] (63% relative humidity and room temperature for two months) is listed as “remained a processable solid”. For the same compound, in series [4] (ambient conditions), the “physical behaviour of the solid at ambient conditions” value is “remains a processable solid”. In addition, the flow properties result in series [4] (open container, room temperature, 45% RH, two months) is “maintained good flow properties”. For the same compound, in series [4] (several days at ambient temperature, relative humidity of 75%), the “processability of the solid” value is “remained a processable solid”. Further, in series [5] (1 month, T = 5° C., RH = N/A), the “Assay (HPLC)” value amounted to 105.7, the “Purity (HPLC)” value was 98.1 and the Water worked out at 9.8. In addition, in series [5] (1 month, T = 25° C., RH = 60%), the “Assay (HPLC)” value is 105.7, the “Purity (HPLC)” value was 98.1 and the Water is recorded as 9.9. In addition, in series [5] (1 month, T = 40° C., RH = 75%), the “Assay (HPLC)” value amounted to 106.0, the “Purity (HPLC)” value is recorded as 98.2 and the Water was determined as 10.0. For the same compound, in series [5] (3 months, T = 5° C., RH = N/A), the “Assay (HPLC)” value came to 106.2, the “Purity (HPLC)” value is 98.0 and the Water came to 9.6. In series [5] (3 months, T = 25° C., RH = 60%), the “Assay (HPLC)” value came to 106.7, the “Purity (HPLC)” value is 98.1 and the Water stood at 9.4. Besides, in series [5] (3 months, T = 40° C., RH = 75%), the “Assay (HPLC)” value is listed as 105.3, the “Purity (HPLC)” value was 97.9 and the Water came to 9.2. Further, the decomposition on storage result in series [5] (6 months at 75% RH) is “no detectable decomposition”. In addition, in series [5] (6 months, T = 5° C., RH = N/A), the “Assay (HPLC)” value turned out to be 104.6, the “Purity (HPLC)” value turned out to be 97.9 and the Water amounted to 8.9. In series [5] (6 months, T = 25° C., RH = 60%), the “Assay (HPLC)” value came out at 105.9, the “Purity (HPLC)” value is on record as 97.9 and the Water is on record as 9.3. Moreover, in series [5] (6 months, T = 40° C., RH = 75%), the “Assay (HPLC)” value worked out at 105.6, the “Purity (HPLC)” value is given as 97.7 and the Water amounted to 9.5. In addition, in series [5] (9 months, T = 5° C., RH = N/A), the “Assay (HPLC)” value amounted to 106.7, the “Purity (HPLC)” value was found to be 97.8 and the Water was 9.1. Moreover, in series [5] (9 months, T = 25° C., RH = 60%), the “Assay (HPLC)” value stood at 107.3, the “Purity (HPLC)” value was 97.8 and the Water is reported as 9.0. Moreover, in series [5] (12 months at 60% RH), the decomposition on storage result is on record as “no detectable decomposition”. Moreover, in series [5] (12 months, T = 5° C., RH = N/A), the “Assay (HPLC)” value was determined as 107.8, the “Purity (HPLC)” value is recorded as 98.0 and the Water came out at 9.3. In addition, in series [5] (setting [7]), the “Assay (HPLC)” value is 107.7, the “Purity (HPLC)” value turned out to be 97.9 and the Water is reported as 9.3. The “change in chemical purity” value in series [5] (any of the conditions tested, 12 month study) was “substantially no change”. In series [5] (time = 0), the “Assay (HPLC)” value was 105.1, the “Purity (HPLC)” value amounted to 98.3 and the Water is recorded as 10.4.

For citrate, the “Comments (outcome of salt preparation)” value in series [1] is given as “Good filterable solid”. Also, the “stability at 63% RH” value in series [4] (63% RH) was “stable”. Moreover, the “stability when submitted to 75% relative humidity” value in series [4] (75% RH) was “not stable”.
